The text below walks through data of paper PMC12311729, “Probing the Mechanism of L‑DOPA 2,3-Dioxygenase Using Synthetic Derivatives of 3,4-Dihydroxyhydrocinnamic Acid” (ACS Omega, 2025).

Where two headings read alike, the source gives them in different places.

A short description of data set [1]: Cyclic voltammetry (redox potentials on a GCE). Format: physicochemical. The following applies: for (E p)a Oxidation / E1/2 / Ipa/Ipc / ΔE p / (E p)c Reduction: GCE (d = 2 mm). The source says:
Reduction and oxidation potentials were experimentally performed by cyclic voltammetry (CV) at biological pH 7.4, as previously described. All samples were run on a CH Instruments 600E Potentiostat in a one-compartment cell equipped with a three-electrode system arrangement. The three-electrode system included a saturated calomel electrode as the reference electrode, a platinum wire as the auxiliary electrode, and a glassy carbon electrode (GCE, d = 2 mm) as the working electrode. The GCE was polished between each sample scan with an aqueous slurry of alumina powder on a microcloth pad. The electrodes were rinsed with distilled water prior to the next scan. All scans were conducted under nitrogen for oxygen displacement and at room temperature (rt, 25 ± 1 °C). All samples were prepared as close to the scan as possible (approximately 2 min each). Each sample (5 mL) contained 0.1 mM catecholic substrate and 1 μM DMSO in 0.1 M phosphate buffer at a pH of 7.4 or 6.0. […] The cyclic voltammograms for the compounds at both pH 6.0 and 7.4 are available in Figures S40–S51.

The subject of data set [2] is S. hygroscopicus jingganensis L-DOPA 2,3-dioxygenase (ShjDDO). Nature of the data set: Presteady state stopped-flow kinetic assay, modeled with KinTek Explorer. The format is biochemical, Streptomyces hygroscopicus jingganensis. Conditions: ratio k6/k7; presteady state with ShjDDO. How it is done: Reaction temperature was controlled at 14 ± 0.5 °C by a circulating water bath. […] Stock solutions of 6-[…] prepared in DMSO. […] ShjDDO was reconstituted with iron(II) sulfate heptahydrate, gel filtered into the reaction buffer, and loaded into the drive syringe. […] Fifteen to twenty progress curves from the same experimental conditions were averaged in the KinTek Stopped Flow software and exported to KinTek Explorer for modeling. Between experiments, the instrument drive syringes were cleaned with acid, base, and water; soaked in 1% Hellmanex detergent for 30 min at ∼30-35 °C; thoroughly rinsed with water; and stored in 10% ethanol. […] state kinetic data were analyzed by fitting to simulated mechanisms using the KinTek Explorer software (KinTek Corp, Austin, TX). KinTek Explorer simulates experimental results by using direct numerical integration of rate equations for the kinetic model and yields estimates for the rate constants of microscopic steps. […] state experiments were modeled using KinTek Explorer according to a defined reaction pathway, as described in the Results and Discussion and shown in Scheme . The extinction coefficients of the DHHCA and 6-[…] semialdehyde products were independently determined as described above and fixed during fitting. Some rates were fixed as either “fast” (i.e., 1 × 10^9) or very slow (1 × 10^-12, i.e., ∼0) as described in the text. The equilibrium represented by k 1 and k -1 was fixed at the ratio of substrate charge states as predicted by the experimentally determined pK a values (Table ) and the Henderson-Hasselbach equation. Extinction coefficients were fitted and/or fixed during fitting as described in the text and interpreted using the observable expression: […], where a is the extinction coefficient applied to ESQ, b is the independently experimentally determined extinction coefficient on P, and c is a y-axis offset. […] ESO2 is the ternary complex of enzyme, substrate, and oxygen. ESQ represents the putative semiquinone intermediate, a UV-absorbing species, and ESQ_X is the species formed from the nonproductive quenching of the semiquinone. […] EP is the enzyme-product complex, and P is the free semialdehyde product. P can then degrade nonenzymatically to the spectroscopically silent P_X. Errors on each fit were calculated from 2[…] at 0.83 Chi^2. The KinTek Explorer program FitSpace explores the uniqueness of a particular fit to the data by measuring the dependence of the sum square error (SSE) on each pair of parameters, while allowing all other parameters to vary in seeking the best fit. […]

A short description of data set [3]: Determination of pKa values by spectrophotometric titration. Conditions: for pK a value: first catecholic deprotonation, determined spectroscopically from pH 3 to 12.5.
Experimental: A buffer system utilizing five different buffers was prepared to cover the pH range of 3.0 to 12.50. A Thermo Scientific Orion Star A211 pH meter was used to measure and determine the pH of each buffer. The pH meter was calibrated using three- and four-point calibration with pH values of 4.00, 7.01, and 10.01 and 4.00, 7.01, 10.01, and 12.00, respectively.
The buffer systems were prepared as previously described and included: NaOAc/HOAc buffers (C = 0.1 M; I = 0.1 M) were used to cover the pH range of 3.0 to 5.50. KH2PO4/K2HPO4 buffers (C = 0.05 M; I = 0.1 M) were used to cover the pH range of 6.00 to 8.00. CHES buffers (C = 0.05 M; I = 0.1 M) were used to cover the pH range of 8.50 to 10.50. Na2HPO4/Na3PO4 buffers (C = 0.05 M; I = 0.1 M) were used to cover the pH range of 11.00 to 12.00. KCl buffers (C = 0.1 M; I = 0.1 M) were used to cover the pH range of 12.00 to 12.50.
The absorbance spectra of the compounds were determined at each pH as previously described. Briefly, a stock solution was prepared for each compound by weighing 2 mg of the compound using a high-precision analytical balance. Each compound was then dissolved in DMSO at a concentration of 10 mM. A UV-transparent 96-well microplate (Corning clear acrylic 96-well UV plate with a UV-transparent flat bottom) was loaded with 196 μL of buffer solution and 4 μL of the catechol stock in each well to get a final concentration of 200 μM. DMSO (4 μL) was added to 196 μL of the appropriate buffer to produce a blank solution for each buffer.
The 96-well plate was loaded into the microplate reader and incubated at 30 °C and shaken for 10 min before the reading. Absorbance readings were completed by using a Synergy HTX 15032517 microplate reader. Each well was read at wavelengths from 210 to 600 nm with 2-nm increments for each scan over a duration of 60 min.
The data were analyzed as previously described. Raw UV-spectra scans were exported to the Excel program. They were first processed by subtracting the reading of the blank solutions from the reading of each compound at the corresponding wavelengths. […] Finally, the spectral difference between the pH 3.0 buffer and the spectra at all other pH values was plotted. Additionally, the spectral difference between the pH 4.0 buffer and the spectra at all other higher pH values was plotted. The wavelengths for the maximum positive and negative absorbance were determined by using the graphs of the spectral difference plots, both for the pH 3.0 and pH 4.0 spectral difference plots. The absolute maximum positive and total absorbance differences at these chosen wavelengths were plotted against the pH of each buffer. The data were imported into the Origin 6.0 program, and the pK a values were determined with a nonlinear regression using eq : 1 Absorbancetotal=εHA−εA−[10^(pH−pKa)]/1+10^(pH−pKa)×[St]
εHA is the extinction coefficients of the acid form of the compound, and εA ^– is the extinction coefficient of the base form of the compound (i.e., the minima and maxima of the absorbance difference curve, respectively), and [S t] is the total compound concentration.
Data set [4] has as its target T1, L-DOPA 2,3-dioxygenase from S. lincolnensis (LmbB1) (Streptomyces lincolnensis, UniProt Q54354). Nature of the data set: UV-visible steady-state assay of L-DOPA 2,3-dioxygenase (LmbB1). Format: biochemical. The protocol: (§1) Purified, reconstituted L-DOPA 2,3-dioxygenases were assessed for activity by monitoring the cleavage of catecholic substrates using UV–visible spectroscopy. 3,4-Dihydroxyhydrocinnamic acid (DHHCA, 3) was purchased from Sigma-Aldrich. 6-CyanoDHHCA (5) and 6-bromoDHHCA (4) were synthesized as described above.
(§2) Molecular oxygen (AirGas) was bubbled directly into the reaction buffer through a glass-bonded silica gas diffuser (Bubblemac Industries, Inc.) or as a gas mixture blended with air (AirGas). Solutions were bubbled with oxygen for several minutes prior to use and for the duration of the experiment. To determine the K M for oxygen (i.e., K MO2), L-DOPA 2,3-dioxygenases (0.25–4.0 μM) were reacted with a saturating concentration of the catecholic substrate DHHCA/6-X-DHHCA derivatives (2–10× the K M sufficient to achieve k cat) and various oxygen concentrations (21–100% or 270–1300 μM at 22 °C). The concentration of oxygen was varied by changing the percentage of oxygen in the blend using a galvanic oxygen sensor and oxygen monitor (AirGas) and then bubbling solutions, as described above. Molecular oxygen percentages were converted to molar concentrations using a reference temperature of 22 °C. The reaction of L-DOPA 2,3-dioxygenases with DHHCA/6-X-DHHCA derivatives as a function of oxygen concentration was followed by the appearance of the steady-state cleavage product by using UV–visible spectroscopy.
(§3) The extinction coefficients for steady-state cleavage products of DHHCA and synthetic 6-X-DHHCA derivatives were determined by reacting various concentrations of DHHCA/6-X-DHHCA derivatives at 22 °C with a 10-fold stoichiometric excess of enzyme (quantified by Fe^II–see Reconstitution) in 50 mM HEPES buffer with 154 mM NaCl at pH 7.5, bubbled with 100% oxygen to a final concentration of 780–910 μM, depending on the volume of oxygenated buffer that comprised the reaction (60–70%). Substrate solutions were prepared from authentic synthetic standards using an analytical balance, and reactions were run to completion as assessed by the appearance of the steady-state product. The λmax and extinction coefficients of DHHCA, 6-cyanoDHHCA, and 6-bromoDHHCA were determined herein as ε380 = 40 740 ± 820 M^–1cm^–1, ε385 = 33 256 ± 484 M^–1cm^–1, and ε380 = 35 282 ± 1190 M^–1cm^–1, respectively (Figure S52).
(§4) Steady-state kinetic data were obtained through a UV–visible spectroscopic assay. Initial rates were obtained from the slopes of the linear regions of the progress curves and plotted versus substrate concentration to yield a hyperbola, which was analyzed using the Michaelis–Menten expression and nonlinear least-squares fitting (NLSF) with Origin 6.0 (Microcal). Two possible derivations of the Michaelis–Menten expression were used: 1) the traditional expression y = k cat × x/(K M + x), where y is Rate/E 0 or the rate of product formation (μM/min) divided by the starting enzyme concentration (μM), x is substrate concentration (μM) and k SP (also known as k cat × K M ^–1)–that is, the second-order rate constant of enzyme and substrate–is extracted from the fitted constants; or 2) the alternative derivation that extracts k SP and k cat directly from the fit: y = (k SP × x)/((1 + k SP × x)/k cat), and where y is Rate/E 0 or the rate of product formation (μM/min) divided by the starting enzyme concentration (μM), x is substrate concentration (μM), k SP is equivalent to k cat×K M ^–1, and K M is extracted from k cat/k cat×K M ^–1.

The target of data set [5] is L-DOPA 2,3-dioxygenase from S. hygroscopicus jingganensis (ShjDDO) (Streptomyces hygroscopicus, UniProt H2JL11). As to the kind of experiment: UV-visible steady-state assay of L-DOPA 2,3-dioxygenase (ShjDDO). The format is biochemical. The protocol: as §1, §2, §3, §4
On the set-up of data set [6]: method as in Biochemistry 2021, 60, 32, 2492–2507. Conditions: percentage of L-DOPA; ref Biochemistry 2021, 60, 32, 2492–2507; cited from earlier work.
Data set [7] concerns the target T1, L-DOPA 2,3-dioxygenase from S. lincolnensis (LmbB1). The arrangement: method as in Biochemistry 2021, 60, 32, 2492–2507. Conditions: percentage of L-DOPA; ref Biochemistry 2021, 60, 32, 2492–2507; cited from earlier work.
Details of data set [8]: method as in Biochemistry 2021, 60, 32, 2492–2507. The following applies: percentage of L-DOPA; ref Biochemistry 2021, 60, 32, 2492–2507; cited from earlier work. This is another data set of the same source.
On the set-up of data set [9]: method as in Biochemistry 2021, 60, 32, 2492–2507. Conditions: percentage of L-DOPA; ref Biochemistry 2021, 60, 32, 2492–2507; cited from earlier work. The source holds these as a separate data set.
The mark [10] stands for this setting: percentage of the value for L-DOPA.

Chain of L-DOPA 2,3-dioxygenase from S. hygroscopicus jingganensis (ShjDDO) (H2JL11 1-162): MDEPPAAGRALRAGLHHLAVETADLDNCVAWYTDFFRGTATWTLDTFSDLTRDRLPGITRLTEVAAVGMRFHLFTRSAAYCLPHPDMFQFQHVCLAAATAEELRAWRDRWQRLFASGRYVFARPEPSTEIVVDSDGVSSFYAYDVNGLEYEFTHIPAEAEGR
T1 sequence (Q54354 entry or part of it): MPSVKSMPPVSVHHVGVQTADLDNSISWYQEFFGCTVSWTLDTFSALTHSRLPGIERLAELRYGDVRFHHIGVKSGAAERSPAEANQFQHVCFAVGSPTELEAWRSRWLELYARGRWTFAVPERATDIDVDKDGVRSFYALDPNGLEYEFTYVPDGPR

In the case of `O=C(O)CCc1ccc(O)c(O)c1` [DHHCA (3), 3,4-dihydroxyhydrocinnamic acid], the “(E p)a Oxidation” value in data set [1] (pH 6.0) is listed as 388 mV; in data set [1] (pH 7.4), 333 mV. The E1/2 in data set [1] (pH 6.0) was determined as 198.5 mV; in [1] (pH 7.4) it was 119 mV. The Ipa/Ipc in [1] (pH 6.0) is reported as 2.54; in data set [1] (pH 7.4) it was 1.30. For the same compound, the ΔE p in [1] (pH 6.0) worked out at 379 mV; in data set [1] (pH 7.4), 428 mV. The “(E p)c Reduction” value in data set [1] (pH 7.4) was “–95 mV”. For the same compound, in data set [1] (setting [10]), the “E1/2 (mV) at pH 7.4 relative to L-DOPA x 100” value was 59%. Besides, the “productive formation of EI (k 6) faster than the rate of inactivation (k 7)” value in data set [2] is recorded as about 40 times. In data set [3], this compound yielded a pK a value of 8.87 ± 0.12. Besides, in data set [3] (setting [10]), the “Catecholic pKa value relative to L-DOPA x 100” value was 101%. The “activity / turnover as substrate” value is listed as “measurable activity” in [4] (LmbB1, aerobic reaction observed by UV–visible spectroscopy) and “measurable activity” in [5] (ShjDDO, aerobic reaction observed by UV–visible spectroscopy). Besides, the “kcat at 22 °C and 100% O2 saturation” value in [4] (S. lincolnensis enzyme, pH 7.5) is 2.1 ± 0.2 sec^–1; in data set [5] (S. hygroscopicus jingganensis enzyme, pH 7.5) it was 6.7 × 10^–1 ± 5.0 × 10 ^–2 sec^–1. The “kSP,O2 × 10^2 at 22 °C” value in [4] (S. lincolnensis enzyme, values are kSP × 10^2) turned out to be 19.2 ± 3.2 μM^–1 min^–1; in data set [5] (S. hygroscopicus jingganensis enzyme, values are kSP × 10^2) it was 17.7 ± 2.6 μM^–1 min^–1. For the same compound, the “kSP catechol × 10^2 at 22 °C” value came to 13.4 ± 2.5 μM^–1 min^–1 in [4] (S. lincolnensis enzyme, values are kSP × 10^2, kSP = kcat/KM) and 9.5 ± 2.3 μM^–1 min^–1 in data set [5] (S. hygroscopicus jingganensis enzyme, values are kSP × 10^2, kSP = kcat/KM). Further, the “kSP, O2 (μM^-1 min^-1) at pH 7.5 relative to L-DOPA x 100 for LmbB1” value in data set [4] (setting [10]) was 23%. Moreover, in [5] (setting [10]), the “kSP, O2 (μM^-1 min^-1) at pH 7.5 relative to L-DOPA x 100 for ShjDDO” value turned out to be 13%.

For the compound `NCCc1ccc(O)c(O)c1` [Dopamine (DA, 2), dopamine], in [1] (pH 6.0), the “(E p)a Oxidation” value stood at 354 mV, the “(E p)c Reduction” value was 84 mV, the E1/2 came out at 219 mV and the Ipa/Ipc worked out at 2.89. Moreover, the ΔE p in data set [1] (pH 6.0) was 270 mV. Further, in [1] (pH 7.4), the “(E p)a Oxidation” value is listed as 178 mV, the “(E p)c Reduction” value is listed as 54 mV, the E1/2 was determined as 116 mV and the Ipa/Ipc came to 1.32. This compound came in with a ΔE p in data set [1] (pH 7.4) of 124 mV. For the same compound, in data set [6], the “CSEV (Å^3) relative to L-DOPA x 100” value is on record as 84%. This compound displayed a pK a value in data set [3] of 8.99 ± 0.05. Further, the “kSP, O2 (μM^-1 min^-1) at pH 7.5 relative to L-DOPA x 100 for LmbB1” value in [7] was 6%. The “E1/2 (mV) at pH 7.4 relative to L-DOPA x 100” value in [8] is listed as 58%. Moreover, in data set [9], the “Catecholic pKa value relative to L-DOPA x 100” value is 102%.
